From ChEMBL document CHEMBL1201862, “PubChem BioAssay data set” (2004)
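1) Cells in 96-well plates. 2) Compound, 48 h, 5 concentrations. 3) Linear interpolation between surrounding doses. 4) Unreached endpoint = highest concentration. GI50 marks 50% less growth.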 Calls of active or inactive are those of the source. No stated cut-off is given here; in the data, active = GI50 up to about 1.1 µM and inactive = higher.

Experiments:
Experiment in all cases: DTP human tumour cell line panel, 48 h
[1] = test system: M14
[2] = test system: LXFL 529
[3] = test system: SK-MEL-2
[4] = test system: NCI-H23
[5] = test system: SK-OV-3
[6] = test system: OVCAR-3
[7] = test system: EKVX
[8] = test system: SK-MEL-28
[9] = test system: HCT-15
[10] = test system: 786-0
[11] = test system: NCI-H226
[12] = test system: A549
[13] = test system: HT-29
[14] = test system: Malme-3M
[15] = test system: KM12
[16] = test system: SR
[17] = test system: SF-295
[18] = test system: MDA-MB-435
[19] = test system: MDA-MB-231
[20] = test system: BT-549

With `Brc1ccc(-c2cc3c(cc2C2SCCS2)OCO3)cc1` the GI50 [1] was 41.6 µM (inactive), the GI50 [2] was 25.4 µM (inactive) and the GI50 [3] was 28.8 µM (inactive). The GI50 [4] was 39.2 µM (inactive), the GI50 [5] was 21.3 µM (inactive) and the GI50 [6] was 16.6 µM (inactive). For the same compound, the GI50 [7] was 10.7 µM (inactive), the GI50 [8] was > 100 µM (inactive) and the GI50 [9] was 29.7 µM. For the same compound, the GI50 [10] was 26.9 µM (inactive), the GI50 [11] was 8.17 µM (inactive) and the GI50 [12] was 18.2 µM (inactive). For the same compound, the GI50 [13] was 33.3 µM (inactive), the GI50 [14] was 45.1 µM (inactive) and the GI50 [15] was 39.4 µM (inactive). The GI50 [16] was 18.4 µM (inactive) and the GI50 [17] was 28.2 µM (inactive).
In the case of `COC(=O)C1=C(C=O)C2C=CC1C2` (stereo unspecified), the GI50 [18] is reported as > 100 µM (inactive), the GI50 [1] is reported as 45.1 µM (inactive) and the GI50 [2] is reported as 21.1 µM (inactive). For the same compound, the GI50 [3] was > 100 µM (inactive), the GI50 [4] was > 97.5 µM (inactive) and the GI50 [5] was > 68.7 µM (inactive). The GI50 [6] was 55.8 µM (inactive), the GI50 [7] was 98.4 µM (inactive) and the GI50 [8] was > 64.3 µM (inactive). The GI50 [9] was 42.1 µM, the GI50 [10] was > 92.3 µM (inactive) and the GI50 [11] was > 100 µM (inactive). The GI50 [19] was > 100 µM (inactive), the GI50 [12] was > 100 µM (inactive) and the GI50 [13] was > 66.2 µM (inactive). The GI50 [20] was > 100 µM (inactive), the GI50 [14] was 56.9 µM (inactive) and the GI50 [15] was > 100 µM (inactive). For the same compound, the GI50 [16] was > 56.6 µM (inactive) and the GI50 [17] was > 100 µM (inactive).
In the case of `NC(=O)N=C(N(Cc1ccccc1)Cc1ccccc1)N(Cc1ccccc1)Cc1ccccc1`, the GI50 [18] is reported as 3.72 µM (inactive), the GI50 [2] is reported as 4.8 µM (inactive) and the GI50 [3] is reported as > 100 µM (inactive). The GI50 [4] was 9.42 µM (inactive), the GI50 [5] was > 58.7 µM (inactive) and the GI50 [6] was 5.08 µM (inactive). The GI50 [7] was > 100 µM (inactive), the GI50 [8] was > 100 µM (inactive) and the GI50 [9] was greater than 28.4 µM. The GI50 [10] was 14.9 µM (inactive), the GI50 [11] was > 100 µM (inactive) and the GI50 [19] was 15.3 µM (inactive). The GI50 [12] was > 100 µM (inactive), the GI50 [13] was 4 µM (inactive) and the GI50 [20] was > 100 µM (inactive). For the same compound, the GI50 [14] was > 100 µM (inactive), the GI50 [15] was > 100 µM (inactive) and the GI50 [16] was > 100 µM (inactive). For the same compound, the GI50 [17] was 3.91 µM (inactive).
With `CC(c1ccc2c(c1)CCC1C2CC2OC23CC=CC(=O)[C@]13C)C1C[C@]2(C)O[C@]2(C)[C@H](O)O1` (stereo partly specified) the GI50 [1] was 10.7 µM (inactive), the GI50 [2] was 10.6 µM (inactive) and the GI50 [3] was 52.2 µM (inactive). The GI50 [4] was 0.219 µM (active), the GI50 [5] was > 100 µM (inactive) and the GI50 [6] was 19.2 µM (inactive). The GI50 [7] was 5.48 µM (inactive), the GI50 [8] was 50.8 µM (inactive) and the GI50 [9] was 82.4 µM. For the same compound, the GI50 [10] was > 100 µM (inactive), the GI50 [11] was 12.1 µM (inactive) and the GI50 [12] was 16.1 µM (inactive). For the same compound, the GI50 [13] was 47.1 µM (inactive), the GI50 [14] was 71.4 µM (inactive) and the GI50 [15] was 36.6 µM (inactive). The GI50 [16] was 13.1 µM (inactive).
`COc1cc(NS(C)(=O)=O)ccc1Nc1c2ccccc2nc2ccccc12` [AMSACRINE] was tested, and the GI50 [18] was 4.54 µM (inactive), the GI50 [1] was 0.266 µM (active) and the GI50 [2] was 3.32 µM (inactive). For the same compound, the GI50 [3] was 3.7 µM (inactive), the GI50 [4] was 0.152 µM (active) and the GI50 [5] was 0.398 µM (active). The GI50 [6] was 2.67 µM (inactive), the GI50 [7] was 2.08 µM (inactive) and the GI50 [8] was 2.59 µM (inactive). For the same compound, the GI50 [9] was 0.716 µM, the GI50 [10] was 0.15 µM (active) and the GI50 [11] was 0.125 µM (active). For the same compound, the GI50 [19] was 2.41 µM (inactive), the GI50 [12] was 0.049 µM (active) and the GI50 [13] was 1.77 µM (inactive). The GI50 [20] was 1.04 µM (active), the GI50 [14] was 0.611 µM (active) and the GI50 [15] was 1.44 µM (inactive). The GI50 [17] was 0.104 µM (active).
`CN(Cc1cnc2nc(N)nc(N)c2n1)c1ccc(C(=O)N[C@@H](CCC(=O)O)C(=O)O)cc1` [METHOTREXATE] was tested, and the GI50 [18] was 0.0341 µM (active), the GI50 [1] was 0.0334 µM (active) and the GI50 [2] was 0.0336 µM (active). For the same compound, the GI50 [3] was 102 µM (inactive), the GI50 [4] was 0.0408 µM (active) and the GI50 [5] was 20.7 µM (inactive). The GI50 [6] was 0.433 µM (active), the GI50 [7] was 18.4 µM (inactive) and the GI50 [8] was 4.86 µM (inactive). The GI50 [9] was 0.0343 µM, the GI50 [10] was 0.034 µM (active) and the GI50 [11] was 20 µM (inactive). The GI50 [19] was 38.7 µM (inactive), the GI50 [12] was 0.0345 µM (active) and the GI50 [13] was 0.0335 µM (active). The GI50 [20] was 69.5 µM (inactive), the GI50 [14] was 2.36 µM (inactive) and the GI50 [15] was 0.0493 µM (active). The GI50 [16] was 0.0373 µM (active) and the GI50 [17] was 0.0383 µM (active).
